Where “and” joins values, the source holds several entries; their conditions need not be identical. Equal entries are not always repeated.
Legend:
[1] = Colorimetric alkylation rate constant assay with TNB^2− as non-specific thiol; format: physicochemical; design: second-order: unit not given here; settings: for remaining [B]: in µM
[2] = Colorimetric alkylation rate constant assay with thiol N1; format: physicochemical; settings: for remaining [A]: N1 from calibration curve (N1 in uM); for remaining [A] / remaining [B]: in µM
[3] = Time 2891 sec, [B]0 = 250, Replicates 1-3
[4] = Time 3071 sec, [B]0 = 250, Replicates 1-3
[5] = Time 3252 sec, [B]0 = 250, Replicates 1-3
[6] = Time 3433 sec, [B]0 = 250, Replicates 1-3
[7] = Time 3613 sec, [B]0 = 250, Replicates 1-3

C=CS(=O)(=O)Nc1cc2cc(C(=O)CCC(=O)O)sc2cc1OC [Compound E1]
remaining [B] ([1]; Replicate 1, 723 sec, [B]0 = 250): 246.895 | remaining [B] ([1]; Replicate 1, 903 sec, [B]0 = 250): 246.517 | remaining [B] ([1]; Replicate 1, 1084 sec, [B]0 = 250): 246.063 | remaining [B] ([1]; Replicate 1, 1265 sec, [B]0 = 250): 245.71 | remaining [B] ([1]; Replicate 1, 1445 sec, [B]0 = 250): 245.231 | remaining [B] ([1]; Replicate 1, 1626 sec, [B]0 = 250): 244.866 | remaining [B] ([1]; Replicate 1, 1806 sec, [B]0 = 250): 244.513 | remaining [B] ([1]; Replicate 1, 1988 sec, [B]0 = 250): 243.833 | remaining [B] ([1]; Replicate 1, 2168 sec, [B]0 = 250): 243.543 | remaining [B] ([1]; Replicate 1, 2349 sec, [B]0 = 250): 242.9 | remaining [B] ([1]; Replicate 1, 2530 sec, [B]0 = 250): 242.61 | remaining [B] ([1]; Replicate 1, 2710 sec, [B]0 = 250): 242.169 | remaining [B] ([1]; Replicate 2, 542 sec, [B]0=250): 248.022 | remaining [B] ([1]; Replicate 2, 723 sec, [B]0=250): 247.165 | remaining [B] ([1]; Replicate 2, 903 sec, [B]0=250): 246.925 | remaining [B] ([1]; Replicate 2, 1084 sec, [B]0=250): 246.522 | remaining [B] ([1]; Replicate 2, 1265 sec, [B]0=250): 246.258 | remaining [B] ([1]; Replicate 2, 1445 sec, [B]0=250): 245.88 | remaining [B] ([1]; Replicate 2, 1626 sec, [B]0=250): 245.262 | remaining [B] ([1]; Replicate 2, 1806 sec, [B]0=250): 245.073 | remaining [B] ([1]; Replicate 2, 1988 sec, [B]0=250): 244.304 | remaining [B] ([1]; Replicate 2, 2168 sec, [B]0=250): 244.191 | remaining [B] ([1]; Replicate 2, 2349 sec, [B]0=250): 243.649 | remaining [B] ([1]; Replicate 2, 2530 sec, [B]0=250): 243.511 | remaining [B] ([1]; Replicate 2, 2710 sec, [B]0=250): 243.032 | remaining [B] ([1]; Replicate 3, 723 sec, [B]0=250): 248.495 | remaining [B] ([1]; Replicate 3, 903 sec, [B]0=250): 247.89 | remaining [B] ([1]; Replicate 3, 1084 sec, [B]0=250): 247.373 | remaining [B] ([1]; Replicate 3, 1265 sec, [B]0=250): 246.731 | remaining [B] ([1]; Replicate 3, 1445 sec, [B]0=250): 246.365 | remaining [B] ([1]; Replicate 3, 1626 sec, [B]0=250): 245.899 | remaining [B] ([1]; Replicate 3, 1806 sec, [B]0=250): 245.521 | remaining [B] ([1]; Replicate 3, 1988 sec, [B]0=250): 245.08 | remaining [B] ([1]; Replicate 3, 2168 sec, [B]0=250): 244.563 | remaining [B] ([1]; Replicate 3, 2349 sec, [B]0=250): 244.16 | remaining [B] ([1]; Replicate 3, 2530 sec, [B]0=250): 243.744 | remaining [B] ([1]; Replicate 3, 2710 sec, [B]0=250): 243.505 | second-order [1, 3]: 0.0003098 and 0.0002905 and 0.000349 | remaining [B] [1, 3]: 243.089 and 241.779 and 242.654 | second-order [1, 4]: 0.0003222 and 0.0003146 and 0.0003655 | remaining [B] [1, 4]: 242.547 and 241.413 and 242.377 | second-order [1, 5]: 0.0003374 and 0.0003303 and 0.0003793 | remaining [B] [1, 5]: 242.194 and 241.111 and 242.036 | second-order [1, 6]: 0.0003624 and 0.0003513 and 0.0004046 | remaining [B] [1, 6]: 241.728 and 240.556 and 241.482 | second-order [1, 7]: 0.0003733 and 0.000365 and 0.0004313 | remaining [B] [1, 7]: 241.426 | second-order ([1]; Time 3794 sec, [B]0 = 250, Replicates 1-3): 0.0003951 and 0.0003787 and 0.000436 | second-order ([1]; Time 3974 sec, [B]0 = 250, Replicates 1-3): 0.0004043 and 0.0004098 and 0.0004713 | second-order ([1]; Time 4155 sec, [B]0 = 250, Replicates 1-3): 0.0004287 and 0.0004139 and 0.0004754 | second-order ([1]; Time 4336 sec, [B]0 = 250, Replicates 1-3): 0.0004451 and 0.0004267 and 0.000504 | second-order ([1]; Time 4516 sec, [B]0 = 250, Replicates 1-3): 0.0004586 and 0.0004477 and 0.0005214 | second-order ([1]; Time 4697 sec, [B]0 = 250, Replicates 1-3): 0.000471 and 0.0004671 and 0.0005431 | second-order ([1]; Time 4878 sec, [B]0 = 250, Replicates 1-3): 0.000487 and 0.0004831 and 0.0005503 | second-order ([1]; Time 5058 sec, [B]0 = 250, Replicates 1-3): 0.0005055 and 0.0005004 and 0.0005698 | second-order ([1]; Time 5239 sec, [B]0 = 250, Replicates 1-3): 0.0005247 and 0.0005046 and 0.0005919 | second-order ([1]; Time 5419 sec, [B]0 = 250, Replicates 1-3): 0.000547 and 0.000531 and 0.0006054 | second-order ([1]; Time 5600 sec, [B]0 = 250, Replicates 1-3): 0.0005568 and 0.0005491 and 0.0006296 | second-order ([1]; Time 5781 sec, [B]0 = 250, Replicates 1-3): 0.0005744 and 0.0005674 and 0.0006477 | second-order ([1]; Time 5961 sec, [B]0 = 250, Replicates 1-3): 0.0005953 and 0.0005931 and 0.0006685 | remaining [A] ([2]; Replicate 1, time 576 sec): 47.8044 | remaining [B] ([2]; Replicate 1, time 576 sec, [B]0 = 250): 193.684 | second-order ([2]; Replicate 1, time 576 sec, second-order plot value): 0.003586 | remaining [A] ([2]; Replicate 1, time 606 sec): 46.4649 | remaining [B] ([2]; Replicate 1, time 606 sec, [B]0 = 250): 192.345 | second-order ([2]; Replicate 1, time 606 sec, second-order plot value): 0.003734 | remaining [A] ([2]; Replicate 2, time 576 sec): 30.5226 | remaining [B] ([2]; Replicate 2, time 576 sec, [B]0=250): 177.381 | second-order ([2]; Replicate 2, time 576 sec, second-order plot value): 0.005955 | remaining [A] ([2]; Replicate 2, time 606 sec): 29.3038 | remaining [B] ([2]; Replicate 2, time 606 sec, [B]0=250): 176.162 | second-order ([2]; Replicate 2, time 606 sec, second-order plot value): 0.006185 | remaining [A] ([2]; Replicate 3, time 576 sec): 37.5866 | remaining [B] ([2]; Replicate 3, time 576 sec, [B]0=250): 183.039 | second-order ([2]; Replicate 3, time 576 sec, second-order plot value): 0.00489 | remaining [A] ([2]; Replicate 3, time 606 sec): 36.1527 | remaining [B] ([2]; Replicate 3, time 606 sec, [B]0=250): 181.605 | second-order ([2]; Replicate 3, time 606 sec, second-order plot value): 0.005103 | remaining [B] ([2]; time 0 sec, [B]0 = 250, replicates 1-3): 244.616 and 236.007 and 232.398 | second-order ([2]; time 0 sec, replicates 1-3): 0.000777 and 0.0002138 and 0.0005945 | remaining [B] ([2]; time 30 sec, [B]0 = 250, replicates 1-3): 239.016 and 232.843 and 226.134 | second-order ([2]; time 30 sec, replicates 1-3): 0.001109 and 0.0004543 and 0.0007469 | remaining [B] ([2]; time 60 sec, [B]0 = 250, replicates 1-3): 231.981 and 229.623 and 220.975 | second-order ([2]; time 60 sec, replicates 1-3): 0.00141 and 0.0007862 and 0.0009101 | remaining [B] ([2]; time 91 sec, [B]0 = 250, replicates 1-3): 228.545 and 226.744 and 217.517 | second-order ([2]; time 91 sec, replicates 1-3): 0.001628 and 0.0009622 and 0.001063 | remaining [B] ([2]; time 121 sec, [B]0 = 250, replicates 1-3): 224.298 and 223.153 and 210.771 | second-order ([2]; time 121 sec, replicates 1-3): 0.002097 and 0.001194 and 0.001265 | remaining [B] ([2]; time 151 sec, [B]0 = 250, replicates 1-3): 215.18 and 221.016 and 204.96 | second-order ([2]; time 151 sec, replicates 1-3): 0.002555 and 0.001754 and 0.001392 | remaining [B] ([2]; time 182 sec, [B]0 = 250, replicates 1-3): 211.366 and 218.251 and 202.608 | second-order ([2]; time 182 sec, replicates 1-3): 0.002758 and 0.002017 and 0.001562 | remaining [B] ([2]; time 212 sec, [B]0 = 250, replicates 1-3): 208.552 and 215.829 and 199.773 | second-order ([2]; time 212 sec, replicates 1-3): 0.003017 and 0.002225 and 0.001719 | remaining [B] ([2]; time 242 sec, [B]0 = 250, replicates 1-3): 206.279 and 213.378 and 197.222 | second-order ([2]; time 242 sec, replicates 1-3): 0.003266 and 0.002402 and 0.001885 | remaining [B] ([2]; time 273 sec, [B]0 = 250, replicates 1-3): 203.276 and 211.041 and 194.671 | second-order ([2]; time 273 sec, replicates 1-3): 0.003532 and 0.002649 and 0.002052 | remaining [B] ([2]; time 303 sec, [B]0 = 250, replicates 1-3): 200.625 and 209.074 and 192.148 | second-order ([2]; time 303 sec, replicates 1-3): 0.003812 and 0.002882 and 0.002197 | remaining [B] ([2]; time 333 sec, [B]0 = 250, replicates 1-3): 197.649 and 207.193 and 190.108 | second-order ([2]; time 333 sec, replicates 1-3): 0.004053 and 0.00316 and 0.002343 | remaining [B] ([2]; time 364 sec, [B]0 = 250, replicates 1-3): 195.376 and 205.141 and 187.925 | second-order ([2]; time 364 sec, replicates 1-3): 0.004327 and 0.003387 and 0.002508 | remaining [B] ([2]; time 394 sec, [B]0 = 250, replicates 1-3): 193.158 and 203.203 and 186.139 | second-order ([2]; time 394 sec, replicates 1-3): 0.004565 and 0.003621 and 0.002671 | remaining [B] ([2]; time 424 sec, [B]0 = 250, replicates 1-3): 190.588 and 201.351 and 184.155 | second-order ([2]; time 424 sec, replicates 1-3): 0.004845 and 0.003909 and 0.002833 | remaining [B] ([2]; time 454 sec, [B]0 = 250, replicates 1-3): 188.694 and 199.783 and 182.426 | second-order ([2]; time 454 sec, replicates 1-3): 0.005104 and 0.004135 and 0.002976 | remaining [B] ([2]; time 485 sec, [B]0 = 250, replicates 1-3): 186.908 and 198.016 and 181.378 | second-order ([2]; time 485 sec, replicates 1-3): 0.005268 and 0.00436 and 0.003143 | remaining [B] ([2]; time 515 sec, [B]0 = 250, replicates 1-3): 185.014 and 196.591 and 179.79 | second-order ([2]; time 515 sec, replicates 1-3): 0.005529 and 0.004611 and 0.003284 | remaining [B] ([2]; time 545 sec, [B]0 = 250, replicates 1-3): 184.094 and 195.166 and 178.713 | second-order ([2]; time 545 sec, replicates 1-3): 0.005715 and 0.004739 and 0.003429
